Assay results as given in US20240398828A1, “HETERO-ATOM CONTAINING COMPOUNDS AND USES THEREOF” (Kumquat Biosciences Inc., priority 2021, published 2024).

Assays:
[1] = target: T1, PTPN2 (i.e., TC-PTP) (Homo sapiens, UniProt P17706); test: Phosphatase activity assay (DiFMUP substrate), PTPN2; format: biochemical; conditions: compounds binned ≤1 uM or >1 uM
T1 sequence (P17706 1-415): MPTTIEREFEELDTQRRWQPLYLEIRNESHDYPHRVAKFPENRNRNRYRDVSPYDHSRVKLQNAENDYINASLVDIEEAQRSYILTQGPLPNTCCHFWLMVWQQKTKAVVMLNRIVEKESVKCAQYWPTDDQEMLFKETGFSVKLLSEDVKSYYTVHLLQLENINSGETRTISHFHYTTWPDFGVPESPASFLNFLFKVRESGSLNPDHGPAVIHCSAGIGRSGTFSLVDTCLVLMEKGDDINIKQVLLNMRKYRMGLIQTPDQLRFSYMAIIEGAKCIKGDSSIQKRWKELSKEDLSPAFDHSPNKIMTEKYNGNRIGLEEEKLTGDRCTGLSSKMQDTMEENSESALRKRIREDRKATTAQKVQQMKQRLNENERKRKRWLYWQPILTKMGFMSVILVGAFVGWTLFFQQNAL
Method in brief: (§1)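 RT, HEPES pH 7.5 buffer with DTT/Tween-20. 10-point inhibitor series premixed ~2 min with enzyme (PTPN2 0.025 ng/ul). Start with DiFMUP at enzyme Km (~45 μM for PTPN2). Read DiFMU ex360/em450 continuously 15–30 min; initial rate vs concentration, 4-parameter fit → IC50.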

[2] = target: T2, PTPN1 (i.e., PTP1B) (Homo sapiens, UniProt P18031); test: Phosphatase activity assay (DiFMUP substrate), PTP1B; format: biochemical; conditions: compounds binned ≤1 uM or >1 uM
T2 sequence (P18031 1-435): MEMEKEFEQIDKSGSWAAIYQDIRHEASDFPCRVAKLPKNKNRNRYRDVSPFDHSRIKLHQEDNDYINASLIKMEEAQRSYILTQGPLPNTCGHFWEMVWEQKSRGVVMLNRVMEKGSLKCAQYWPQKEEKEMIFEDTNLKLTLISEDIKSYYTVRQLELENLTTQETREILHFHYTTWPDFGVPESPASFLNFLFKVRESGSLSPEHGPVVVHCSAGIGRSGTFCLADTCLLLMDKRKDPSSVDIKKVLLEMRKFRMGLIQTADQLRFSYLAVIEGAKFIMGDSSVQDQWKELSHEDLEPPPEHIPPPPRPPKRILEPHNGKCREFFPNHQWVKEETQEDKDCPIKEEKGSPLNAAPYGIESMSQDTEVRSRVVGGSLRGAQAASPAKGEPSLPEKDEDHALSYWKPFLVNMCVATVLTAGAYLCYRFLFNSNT
Method in brief: as §1

SMILES	IC50 [1]	IC50 [2]
O=C1CN(c2c(O)ccc(-c3cc(CCC4CC4)n[nH]3)c2F)S(=O)(=O)N1 [Compound 452, 5-(3-(3-(2-cyclopropylethyl)-1H-pyrazol-5-yl)-2-fluoro-6-hydroxyphenyl)-1,2,5-thiadiazolidin-3-one 1,1-dioxide]	≤ 1000 nM	≤ 1000 nM
O=C1CN(c2c(O)ccc(C3CNC(CO)C3)c2F)S(=O)(=O)N1 (stereo not drawn) [Compound 327, 5-(2-fluoro-6-hydroxy-3-(5-(hydroxymethyl)pyrrolidin-3-yl)phenyl)-1,2,5-thiadiazolidin-3-one 1,1-dioxide]	≤ 1000 nM	≤ 1000 nM
O=C1CN(c2c(O)ccc(-c3cnn(Cc4ccc(Cl)cc4)c3)c2F)S(=O)(=O)N1 [Compound 189, 5-(3-(1-(4-chlorobenzyl)-1H-pyrazol-4-yl)-2-fluoro-6-hydroxyphenyl)-1,2,5-thiadiazolidin-3-one 1,1-dioxide]	≤ 1000 nM	≤ 1000 nM
O=C1CN(c2c(O)ccc(-c3cnn(C4CCCCC4)c3)c2F)S(=O)(=O)N1 [Compound 160, 5-(3-(1-cyclohexyl-1H-pyrazol-4-yl)-2-fluoro-6-hydroxyphenyl)-1,2,5-thiadiazolidin-3-one 1,1-dioxide]	≤ 1000 nM	≤ 1000 nM
O=C1CN(c2c(O)ccc(C3=CCSCC3)c2F)S(=O)(=O)N1 [Compound 294, 5-(3-(3,6-dihydro-2H-thiopyran-4-yl)-2-fluoro-6-hydroxyphenyl)-1,2,5-thiadiazolidin-3-one 1,1-dioxide]	≤ 1000 nM	≤ 1000 nM
O=C1CN(c2c(O)ccc(-c3cnn(CCC4CCOC4)c3)c2F)S(=O)(=O)N1 (stereo not drawn) [Compound 228, 5-(2-fluoro-6-hydroxy-3-(1-(2-(tetrahydrofuran-3-yl)ethyl)-1H-pyrazol-4-yl)phenyl)-1,2,5-thiadiazolidin-3-one 1,1-dioxide]	≤ 1000 nM	≤ 1000 nM
O=C1CN(c2c(O)ccc(-c3cnn(C4CC5(CC5)C4)c3)c2F)S(=O)(=O)N1 [Compound 414, 5-(2-fluoro-6-hydroxy-3-(1-(spiro[2.3]hexan-5-yl)-1H-pyrazol-4-yl)phenyl)-1,2,5-thiadiazolidin-3-one 1,1-dioxide]	≤ 1000 nM	≤ 1000 nM
CC(C)CNc1ccc(-c2ccc(O)c(N3CC(=O)NS3(=O)=O)c2F)cc1 [Compound 193, 5-(2-fluoro-4-hydroxy-4′-(isobutylamino)-[1,1′-biphenyl]-3-yl)-1,2,5-thiadiazolidin-3-one 1,1-dioxide]	≤ 1000 nM	≤ 1000 nM
CO[C@H]1CC[C@H](n2cc(-c3ccc(O)c(N4CC(=O)NS4(=O)=O)c3F)cn2)CC1 [Compound 426, 5-(2-fluoro-6-hydroxy-3-(1-((1r,4r)-4-methoxycyclohexyl)-1H-pyrazol-4-yl)phenyl)-1,2,5-thiadiazolidin-3-one 1,1-dioxide]	≤ 1000 nM	≤ 1000 nM
CC(C)(C)n1cc(-c2ccc(O)c(N3CC(=O)NS3(=O)=O)c2F)cn1 [Compound 293, 5-(3-(1-(tert-butyl)-1H-pyrazol-4-yl)-2-fluoro-6-hydroxyphenyl)-1,2,5-thiadiazolidin-3-one 1,1-dioxide]	≤ 1000 nM	≤ 1000 nM
CC(O)c1cc(-c2ccc(O)c(N3CC(=O)NS3(=O)=O)c2F)[nH]n1 (stereo not drawn) [Compound 462, 5-(2-fluoro-6-hydroxy-3-(3-(1-hydroxyethyl)-1H-pyrazol-5-yl)phenyl)-1,2,5-thiadiazolidin-3-one 1,1-dioxide]	≤ 1000 nM	≤ 1000 nM
Cn1nc(-c2ccc(O)c(N3CC(=O)NS3(=O)=O)c2F)cc1C1CC1 [Compound 367, 5-(3-(5-cyclopropyl-1-methyl-1H-pyrazol-3-yl)-2-fluoro-6-hydroxyphenyl)-1,2,5-thiadiazolidin-3-one 1,1-dioxide]	≤ 1000 nM	≤ 1000 nM
O=C1CN(c2c(O)ccc(C3CCN(C4CC4)CC3)c2F)S(=O)(=O)N1 [Compound 353, 5-(3-(1-cyclopropylpiperidin-4-yl)-2-fluoro-6-hydroxyphenyl)-1,2,5-thiadiazolidin-3-one 1,1-dioxide]	≤ 1000 nM	≤ 1000 nM
CCn1nc(-c2ccc(O)c(N3CC(=O)NS3(=O)=O)c2F)cc1C1CC1(F)F (stereo not drawn) [Compound 494, 5-(3-(5-(2,2-difluorocyclopropyl)-1-ethyl-1H-pyrazol-3-yl)-2-fluoro-6-hydroxyphenyl)-1,2,5-thiadiazolidin-3-one 1,1-dioxide]	≤ 1000 nM	≤ 1000 nM
Cn1cnc(-c2ccc(O)c(N3CC(=O)NS3(=O)=O)c2F)n1 [Compound 237, 5-(2-fluoro-6-hydroxy-3-(1-methyl-1H-1,2,4-triazol-3-yl)phenyl)-1,2,5-thiadiazolidin-3-one 1,1-dioxide]	≤ 1000 nM	≤ 1000 nM
CC(C)S(=O)(=O)Nc1ccc(-c2ccc(O)c(N3CC(=O)NS3(=O)=O)c2F)cc1 [Compound 374, N-(3′-(1,1-dioxido-4-oxo-1,2,5-thiadiazolidin-2-yl)-2′-fluoro-4′-hydroxy-[1,1′-biphenyl]-4-yl)propane-2-sulfonamide]	≤ 1000 nM	≤ 1000 nM
O=C1CN(c2c(O)ccc(-c3ccn(CC4CC4)c3)c2F)S(=O)(=O)N1 [Compound 240, 5-(3-(1-(cyclopropylmethyl)-1H-pyrrol-3-yl)-2-fluoro-6-hydroxyphenyl)-1,2,5-thiadiazolidin-3-one 1,1-dioxide]	≤ 1000 nM	≤ 1000 nM
O=C1CN(c2c(O)ccc(-c3cn(-c4cc(F)cc(F)c4)cn3)c2F)S(=O)(=O)N1 [Compound 265, 5-(3-(1-(3,5-difluorophenyl)-1H-imidazol-4-yl)-2-fluoro-6-hydroxyphenyl)-1,2,5-thiadiazolidin-3-one 1,1-dioxide]	≤ 1000 nM	≤ 1000 nM
O=C1CN(c2c(O)ccc(-c3cnn(C(=O)N4CC(F)(F)C4)c3)c2F)S(=O)(=O)N1 [Compound 505, 5-(3-(1-(3,3-difluoroazetidine-1-carbonyl)-1H-pyrazol-4-yl)-2-fluoro-6-hydroxyphenyl)-1,2,5-thiadiazolidin-3-one 1,1-dioxide]	≤ 1000 nM	≤ 1000 nM
CN(C)c1ccc(-c2ccc(O)c(N3CC(=O)NS3(=O)=O)c2F)cn1 [Compound 208, 5-(3-(6-(dimethylamino)pyridin-3-yl)-2-fluoro-6-hydroxyphenyl)-1,2,5-thiadiazolidin-3-one 1,1-dioxide]	≤ 1000 nM	≤ 1000 nM
C[C@@H]1C=C(c2ccc(O)c(N3CC(=O)NS3(=O)=O)c2F)CN1 [Compound 483, (R)-5-(2-fluoro-6-hydroxy-3-(5-methyl-2,5-dihydro-1H-pyrrol-3-yl)phenyl)-1,2,5-thiadiazolidin-3-one 1,1-dioxide]	≤ 1000 nM	≤ 1000 nM
C[C@H]1C=C(c2ccc(O)c(N3CC(=O)NS3(=O)=O)c2F)CN1 [Compound 504, (S)-5-(2-fluoro-6-hydroxy-3-(5-methyl-2,5-dihydro-1H-pyrrol-3-yl)phenyl)-1,2,5-thiadiazolidin-3-one 1,1-dioxide]	≤ 1000 nM	≤ 1000 nM
CC(C)n1cc(-c2ccc(O)c(N3CC(=O)NS3(=O)=O)c2F)cn1 [Compound 108, 5-(2-fluoro-6-hydroxy-3-(1-isopropyl-1H-pyrazol-4-yl)phenyl)-1,2,5-thiadiazolidin-3-one 1,1-dioxide]	≤ 1000 nM	≤ 1000 nM
CC(C)CCCc1cc(-c2ccc(O)c(N3CC(=O)NS3(=O)=O)c2F)[nH]n1 [Compound 290, 5-(2-fluoro-6-hydroxy-3-(3-(4-methylpentyl)-1H-pyrazol-5-yl)phenyl)-1,2,5-thiadiazolidin-3-one 1,1-dioxide]	≤ 1000 nM	≤ 1000 nM
O=C1CN(c2c(O)ccc(-c3ccc(NS(=O)(=O)C4CCC4)cc3)c2F)S(=O)(=O)N1 [Compound 335, N-(3′-(1,1-dioxido-4-oxo-1,2,5-thiadiazolidin-2-yl)-2′-fluoro-4′-hydroxy-[1,1′-biphenyl]-4-yl)cyclobutanesulfonamide]	≤ 1000 nM	≤ 1000 nM
O=C1CN(c2c(O)ccc(-c3cnn(Cc4cncnc4)c3)c2F)S(=O)(=O)N1 [Compound 197, 5-(2-fluoro-6-hydroxy-3-(1-(pyrimidin-5-ylmethyl)-1H-pyrazol-4-yl)phenyl)-1,2,5-thiadiazolidin-3-one 1,1-dioxide]	≤ 1000 nM	≤ 1000 nM
COCC#Cc1cc(-c2ccc(O)c(N3CC(=O)NS3(=O)=O)c2F)[nH]n1 [Compound 274, 5-(2-fluoro-6-hydroxy-3-(3-(3-methoxyprop-1-yn-1-yl)-1H-pyrazol-5-yl)phenyl)-1,2,5-thiadiazolidin-3-one 1,1-dioxide]	≤ 1000 nM	≤ 1000 nM
